Laboratory results published in publication PMC4109680, “Identification and Preclinical Pharmacology of the γ-Secretase Modulator BMS-869780” (International Journal of Alzheimer's Disease, 2014).

Experiment: Pharmacokinetics in male cynomolgus monkeys
Assay type: in vivo
Conditions: cynomolgus monkey, plasma
Method: Male Sprague-Dawley (SD) rats (300–350 g) were fasted overnight, and three per group received BMS-869780 either as an intravenous (IV) infusion in PEG400 : ethanol (90 : 10 w/w) at 1 mg/kg over 5 min via the jugular vein or as nanosuspension (d50 ca. 300 nm) by oral gavage at 5 mg/kg in Povidone K-30 : sodium lauryl sulfate : water (2.5 : 0.12 : 97.38 w/w/w/w). For the IV infusion, serial blood samples were obtained before dose and at 0.17, 0.25, 0.5, 0.75, 1, 2, 4, 6, 8, and 24 hours after dose. For the PO nanosuspension, serial blood samples were obtained before dose and at 0.25, 0.5, 0.75, 1, 2, 4, 6, 8, and 24 h after dose. Blood samples, ~0.3 mL, for all studies were collected from the jugular vein into K3EDTA-containing tubes and then centrifuged at 4°C (1500–2000 ×g) to obtain plasma, which was stored at −20°C until analysis by LC/MS/MS. In male beagle dogs, the PK of BMS-869780 was evaluated in a cross-over study design with a one-week washout between treatments. Dogs were fasted overnight, and three animals (9.5 to 10.7 kg) received BMS-869780 by IV infusion at 1 mg/kg over 5 minutes in PEG400 : ethanol (90 : 10 w/w) or as nanosuspension (d50 ca. 300 nm) by oral gavage at 5 mg/kg in Povidone K-30 : sodium lauryl sulfate : water (2.5 : 0.12 : 97.38 w/w/w/w). Serial blood samples (~0.3 mL) were collected from a saphenous vein into K3EDTA-containing tubes before dose and at 0.083, 0.17, 0.25, 0.5, 0.75, 1, 2, 4, 6, 8, and 24 hours after IV dose, and 0.25, 0.5, 0.75, 1, 2, 4, 6, 8, and 24 hours after oral dose, followed by centrifugation at 4°C (1500 to 2000 ×g) to obtain plasma. Samples were stored at −20°C until analysis of BMS-869780 levels by LC-MS/MS. In male cynomolgus monkeys, the PK of BMS-869780 was evaluated in a cross-over study design with a 1-week washout between treatments. Following an overnight fast, three animals (4.5 to 8 kg) received BMS-869780 by IV infusion via a femoral vein at 1 mg/kg over 10 minutes in PEG400 : ethanol (90 : 10), or by oral gavage at 5 mg/kg in Povidone K-30 : sodium lauryl sulfate : water (2.5 : 0.12 : 97.38). Serial blood samples, ~0.3 mL, were collected from a femoral artery into K3EDTA-containing tubes before dose and at 0.083, 0.17, 0.25, 0.5, 0.75, 1, 2, 4, 6, 8, and 24 hours after IV dose, and 0.25, 0.5, 0.75, 1, 2, 4, 6, 8, and 24 hours after oral dose, followed by centrifugation at 4°C (1500 to 2000 ×g) to obtain plasma. Samples were stored at −20°C until analysis of BMS-869780 levels by LC-MS/MS. The PK parameters of BMS-869780 were obtained by noncompartmental analysis of plasma concentration versus time data (WinNonlin software, Version 5.0; Pharsight Corporation, Mountain View, CA). The peak concentration (C max) and time for C max (T max) were recorded directly from experimental observations. The area under the curve from time zero to the last sampling time (AUC^0-T) and the area under the curve from time zero to infinity (AUC^INF) were calculated using a combination of linear and log trapezoidal summations. The total plasma clearance (CLTp), steady-state volume of distribution (Vss), apparent elimination half-life (T 1/2), and mean residence time (MRT) were estimated after IV administration. The absolute oral bioavailability (F) was estimated as the ratio of dose-normalized AUC values following oral and IV doses.
Figure 9 Pharmacokinetics (PK) of BMS-869780 across species for prediction of human PK. Rats, dogs, and cynomolgus monkeys were dosed with BMS-869780 intravenously (IV ▲) at 1 mg/kg or oral nanosuspension (PO ●) at 5 mg/kg. Plasma concentrations of BMS-869780 were determined for up to 24 hours after the dose. (a) Rat. (b) Dog. (c) Cynomolgus monkey.

COc1cc(Nc2nc3n(n2)CCCC[C@H]3c2ccc(F)cc2)ccc1-n1cnc(Cl)c1 [BMS-869780]
AUC(0-t) (IV 1 mg/kg): 2.63 ± 0.926 µM·h | MRT (IV 1 mg/kg): 3.8 ± 0.7 h | clearance (IV 1 mg/kg): 15.2 ± 5.9 mL/min/kg | half-life (IV 1 mg/kg): 4 ± 0.5 h | Vd (IV 1 mg/kg, read-out: Vss): 3.7 ± 1.3 L/kg | AUC(0-t) (PO suspension 5 mg/kg): 2.03 ± 1.04 µM·h | Cmax (PO suspension 5 mg/kg): 219 ± 94 nM | Tmax (PO suspension 5 mg/kg): 2 h | bioavailability (PO suspension 5 mg/kg): 16%
